Key:
[1] = timed administration; cited from earlier work
[2] = two-week treatment of C57BL/6 ob/ob mice (body weight, fat and lean body mass, food consumption, blood glucose, serum free fatty acids); assay type: in vivo, C57BL/6 ob/ob mice (lacking a functional leptin protein); details: two weeks
Procedure: Different groups (8 mice per group) of 4-8 week old C57BL/6 ob/ob mice (lacking a functional leptin protein) were treated with:
1) vehicle at 1 and 11 hours after light onset (HALO);
2) Buspirone ("Busp"; a 5HT1A agonist) (3 mg/kg) at 11 HALO;
3) DOI (a 5HT2 agonist) (8 mg/kg) at 11 HALO;
4) RU24969 ("RU") (5HT1B agonist) (3 mg/kg) at 11 HALO;
5) bromocriptine ("BC") (12 mg/kg BW) at 1 HALO;
6) BC (12 mg/kg) at 1 HALO plus Buspirone (3 mg/kg) at 11 HALO;
7) BC (12 mg/kg) at 1 HALO plus DOI (8 mg/kg) at 11 HALO;
8) BC (12 mg/kg) at 1 HALO plus RU (3 mg/kg) at 11 HALO;
9) SKF38393 ("SKF") (D1 agonist) (20mg/kg BW) at 1 HALO; and
10) SKF(20 mg/kg) at 1 HALO plus RU (3 mg/kg) at 11 HALO for two weeks. Animals were held on 12-hour daily photoperiods and allowed to feed ad libitum. Food consumption was monitored daily for 3 days before the initiation of treatment throughout the 14-day treatment period. Animals were sacrificed between 1 and 3 HALO on the day following the final treatment and plasma was collected for the analyses of insulin, glucose, and lipids while the carcasses were solubilized in ethanolic KOH and analyzed for protein and lipid content. Blood glucose was measured with an Accu-Chek Advantage glucose meter (Boehringer). Serum insulin was measured with a radioimmunoassay kit (Linco Research) using rat insulin standards. Total triglycerides and free fatty acids were measured with kits from Sigma Diagnostics and Wako Chemicals, respectively. Body weight gain or loss as a result of treatment is depicted in FIG. 1. Fat body mass is depicted in FIG. 2.

[3] = cited from earlier work
[4] = in vivo; cited from earlier work
[5] = cited from earlier work; remark: listed apart in the source

Compound | body fat stores / fat body mass (effect in words) [2] | body weight gain (effect in words) [2] | food intake / food consumption (effect in words) [2] | other results
CC(C)C[C@H]1C(=O)N2CCC[C@H]2[C@]2(O)O[C@](NC(=O)[C@@H]3C=C4c5cccc6[nH]c(Br)c(c56)C[C@H]4N(C)C3)(C(C)C)C(=O)N12 [Bromocriptine, 2-bromo-alpha-ergocriptine] | ineffective | ineffective | ineffective | body fat stores (effect in words) [1]: reduce body fat stores; food consumption (effect in words) [1]: without a concomitant reduction in food consumption; hyperinsulinemia, hyperlipidemia, and glucose intolerance (effect in words) [1]: reduce hyperinsulinemia, hyperlipidemia, and glucose intolerance; locomotor stimulation and stereotyped behavior responses ([3]; after depletion of endogenous dopamine): blocked by depletion of endogenous dopamine; responsiveness in dopamine depleted animals given a D1 dopamine receptor agonist ([3]; dopamine depleted animals plus D1 agonist): restored
O=C1CC2(CCCC2)CC(=O)N1CCCCN1CCN(c2ncccn2)CC1 [Buspirone] | ineffective | ineffective | ineffective | –
COc1cc(CC(C)N)c(OC)cc1I (stereo not drawn) [DOI] | ineffective | ineffective | ineffective | –
COc1ccc2[nH]cc(C3=CCNCC3)c2c1 [RU] | – | significant decrease | significant decrease | –
Oc1cc2c(cc1O)C(c1ccccc1)CNCC2 (stereo not drawn) [SKF] | – | significant decrease | significant decrease | –
CCOC(=O)C(C)(C)Oc1ccc(Cl)cc1 [clofibrate] | – | – | – | side effects [4]: nephrotic syndromes, myalgia, nausea, and abdominal pain
CC[C@H](C)C(=O)O[C@H]1C[C@@H](C)C=C2C=C[C@H](C)[C@H](CC[C@@H]3C[C@@H](O)CC(=O)O3)[C@H]21 [lovastatin] | – | – | – | total cholesterol (effect in words) ([5]; in vivo): reduces total cholesterol; increase in HDL concentrations ([5]; lovastatin (MEVACOR)): 5-10%

Source: patent publication US5877183A, “Treatment of lipid and glucose metabolism disorders with dopamine and serotonin agonists” (Ergo Research Corporation, priority 1997, dated 1999)
